Laboratory results published in paper PMC7758436 (Frontiers in Veterinary Science, 2020).
Where two headings read alike, the source gives them in different places.

What was measured:
[1] = tested on: promastigote forms of L. (L.) amazonensis; experiment: In vitro leishmanicidal activity, growth inhibition of promastigote forms (counting in Neubauer's chamber); format: cell-based, Leishmania (Leishmania) amazonensis; conditions: value (95% CI)
Procedure: (§1) L. (L.) amazonensis (IFLA/BR/67/PH8.) was maintained as promastigote forms in Roswell Park Memorial Institute medium (RPMI 1640 medium) (Gibco, Grand Island, NY, USA), supplemented with antibiotics (penicillin 10.000 UI/mL and streptomycin […]) (Cultilab, Campinas, BR), and 10% bovine fetal serum (FBS) (Cultilab), at 25°C. L. (L.) infantum (MHOM/BR/1972/LD) was maintained as promastigote forms in M199 medium (Gibco), supplemented with 10% FBS (Cultilab), antibiotics (Cultilab), 5% human urine and 0.25% hemin (Sigma-Aldrich) at 25°C, and amastigote forms were obtained from the spleen of golden hamsters after 60 to 70 days of infection ([21]). Peritoneal murine macrophages were obtained by washing the peritoneal cavity of BALB/c mice with RPMI 1640 medium (Gibco) after 72 h of the application of 5 mL of the sodium thioglycolate (Sigma-Aldrich) at 3%, and then were cultivated in RPMI 1640 medium (Gibco) supplemented with antibiotics and 10% FBS (Gibco), at 37°C in a 5% CO2 humidified incubator.
Initially, a screening was performed against promastigote forms of L. (L.) amanzonensis. […] […], and the leishmanicidal activity was determined by the inhibition of growth of the promastigote forms by counting the total number of live promastigote in Neubauer's chamber (Global Glass, São Paulo, BR) using an optical microscope (Nikon New York, USA). […] To evaluate the leishmanicidal activity against amastigote forms, peritoneal murine macrophages were seemed (2 × 10^5 cells per well) in 24-well plates on slide chambers and incubated at 37°C for 24 h. […] The slides were stained with Giemsa (Synth, Diadema, BR), analyzed using an optical microscopy (Nikon), and the parasite load was defined by the number of infected macrophages X number of intracellular amastigotes/number of total macrophages ([23]). Parasites cultured in medium with 0.1% were used as negative control and parasites cultured in medium with MA or AmpB were used as positive controls.

[2] = tested on: amastigote forms of L. (L.) amazonensis; experiment: In vitro leishmanicidal activity against intracellular amastigote forms in peritoneal murine macrophages (Giemsa, parasite load); format: cell-based; conditions: Leishmania amazonensis, Macrophage, 48 h, value (95% CI)
Procedure: as §1
(§2) Initially, a screening was performed against promastigote forms of L. (L.) amanzonensis. […] The slides were stained with Giemsa (Synth, Diadema, BR), analyzed using an optical microscopy (Nikon), and the parasite load was defined by the number of infected macrophages X number of intracellular amastigotes/number of total macrophages ([23]). […]

[3] = In vitro hemolytic activity; format: cell-based, sheep; conditions: sheep
Procedure: (§3) Defibrinated sheep blood (Newprov, Pinhais, PR, BR) was diluted in 0.9% saline solution and a suspension at 3% of erythrocytes was transferred (100 μL) in 96-well plates. […] The hemolytic activity was determined in the cell supernatant by optical density reading at 415 nm (Libra S12–Biochrom–Cambridge, RU) Distilled water was used as a positive control, and 0.9% saline solution with 0.1% DMSO was used as negative control.

[4] = In vitro cytotoxic activity, MTT assay; format: cell-based, BALB/c mice; conditions: BALB/c, mouse, 48 h, MTT, value (95% CI)
Procedure: as §1
(§4) The cells were incubated at 37°C in a 5% CO2 humidified incubator at 37°C during 48 h, and the cytotoxic activity was determined using MTT assay ([23]). Cells cultured in medium with 0.1% DMSO were used as negative control and cells cultured in medium with 25% DMSO were used as positive control.

[5] = ref [11], cited from earlier work
L. (L.) major = conditions: 2.5 and 5 mg/kg of body weight, intraperitoneal, 7 days after infection during 39 days; ref [11]; cited from earlier work
erythrocytes = conditions: after 24 h; ref [33]; cited from earlier work
[6] = tested on: Peritoneal murine macrophages; experiment: In vitro cytotoxic activity, MTT assay; format: cell-based, BALB/c mice
Procedure: as §1, §4

amastigotes = conditions: 2.5 μM, 72 h of incubation; ref [10], [11]; cited from earlier work
HFF cell = conditions: ref [32]; cited from earlier work
[7] = tested on: amastigote forms of L. (L.) infantum; experiment: In vitro leishmanicidal activity against intracellular amastigote forms in peritoneal murine macrophages (Giemsa, parasite load); format: cell-based, Leishmania (Leishmania) infantum; conditions: 48 h, read-out: IC50 L (L.) infantum Amastigote 48 h
Procedure: as §1, §2

L. (L.) donovani = conditions: 20 mg/kg of body weight per day, intraperitoneal, six consecutive days; vs untreated control; ref [11]; cited from earlier work
[8] = Hepatotoxicity in no-infected hamsters, serum ALT and AST; format: in vivo, golden hamsters (Mesocricetus auratus); conditions: for serum levels of aminotransaminases (ALT, AST): no-infected hamsters, 15 days, vs negative control group
Procedure: After this period, serum concentrations of alanine aminotransferase (ALT) and aspartate aminotransferase (AST) were determined using sets of commercial reagents (Labtest, Minas Gerais, Brazil). Negative control group received the same number of injections of PBS.

L. (L.) infantum = experiment: In vivo leishmanicidal activity in L. (L.) infantum-infected hamsters (limiting dilution); design: species or system golden hamsters (Mesocricetus auratus); conditions: for reduction of parasite burden in liver / reduction of parasite burden in spleen: intraperitoneal, eight consecutive days, vs negative control group; for survival rate / average body weight: infected hamsters; for survival rate: after the treatment (data not shown); for average body weight: among negative, LicoA and MA groups
Procedure: Male golden hamsters were infected by intraperitoneal route with 1.0 × 10^8 L. (L.) infantum amastigotes. Four weeks after infection, the animals were randomly separated in 4 groups of 6 animals each. […] Negative control group received the same number of injections of phosphate buffered saline (PBS) and animals from positive control group was treated with MA (Sanofi-Aventis) at dose 50 mg/kg of body weight during eight consecutive days by intraperitoneal route. Thirty five days after treatment the animals were sacrificed and the parasite burden was evaluated both in spleen and liver by limiting dilution method ([24]).

[9] = tested on: promastigote forms of L. (L.) infantum; experiment: In vitro leishmanicidal activity, growth inhibition of promastigote forms (counting in Neubauer's chamber); format: cell-based, Leishmania (Leishmania) infantum
Procedure: as §1
Initially, a screening was performed against promastigote forms of L. (L.) amanzonensis. […] The plates were incubated at same conditions previously described during 48 h, and the leishmanicidal activity was determined by the inhibition of growth of the promastigote forms by counting the total number of live promastigote in Neubauer's chamber (Global Glass, São Paulo, BR) using an optical microscope (Nikon New York, USA). […] To evaluate the leishmanicidal activity against amastigote forms, peritoneal murine macrophages were seemed (2 × 10^5 cells per well) in 24-well plates on slide chambers and incubated at 37°C for 24 h. […] The slides were stained with Giemsa (Synth, Diadema, BR), analyzed using an optical microscopy (Nikon), and the parasite load was defined by the number of infected macrophages X number of intracellular amastigotes/number of total macrophages ([23]). Parasites cultured in medium with 0.1% were used as negative control and parasites cultured in medium with MA or AmpB were used as positive controls.

[10] = design: method as in PMID 29698432; conditions: ref [38]; cited from earlier work
[11] = tested on: Defibrinated sheep blood erythrocytes; experiment: In vitro hemolytic activity; format: cell-based; conditions: 400 μM; 30 min at 37°C
Procedure: as §3

[12] = Leishmania amazonensis, 24 h, read-out: IC50 L (L.) amazonensis Promastigote 24 h
[13] = Leishmania amazonensis, 48 h, read-out: IC50 L (L.) amazonensis Promastigote 48 h
[14] = 48 h, MTT, value (95% CI), read-out: CC50 Peritoneal murine macrophages 48 h
[15] = 50 mg/kg of body weight per day intraperitoneally
[16] = 20 mg/kg of body weight per day
[17] = 50 mg/kg of body weight per day

With C[C@@H]1[C@H](O)[C@@H](C)/C=C/C=C/C=C/C=C/C=C/C=C/C=C/[C@H](O[C@@H]2O[C@H](C)[C@@H](O)[C@H](N)[C@@H]2O)C[C@@H]2O[C@](O)(C[C@@H](O)C[C@@H](O)[C@H](O)CC[C@@H](O)C[C@@H](O)CC(=O)O[C@H]1C)C[C@H](O)[C@H]2C(=O)O [AmpB, amphotericin B, reference compound] as the compound, how does the IC50 [1, 12] read?
Its IC50 is 0.27 µM.

And the IC50 [1, 13]?
Its IC50 is 0.065 µM.

What about the IC50 [2] of the same compound?
The IC50 was 0.022 µM.

And the hemolysis at 30 min, 100 µM [3]?
Its hemolysis at 30 min, 100 µM is 60%.

And the hemolysis at 30 min, 200 µM [3]?
The hemolysis at 30 min, 200 µM was 100%.

What does the source list for COc1ccc(C(=O)/C=C/c2ccc(OCC=C(C)C)c(OC)c2)cc1 [LLA1 (1a), (E)-3-(3-methoxy-4-((3-methylbut-2-en-1-yl)oxy)phenyl)-1-(4-methoxyphenyl)prop-2-en-1-one]?
IC50 [1, 12]: 74.9 µM; IC50 [1, 13]: 67.2 µM; CC50 at 48 h ([4]; peritoneal murine macrophages): > 400 µM

Which results are given for C=CC(C)(C)c1cc(/C=C/C(=O)c2ccc(O)cc2)c(OC)cc1O [LicoA (1), Licochalcone A]?
toxicity, intraperitoneal ([5]; 100 mg/kg in rats and 150 mg/kg in hamsters, intraperitoneal): did not show any toxicity; signs of toxicity, oral ([5]; doses higher than 1,000 mg/kg, orally once a day for 2 weeks): did not cause any signs of toxicity; IC50 [1, 12]: 20.3 µM; IC50 [1, 13]: 3.88 µM; lesion development (L. (L.) major): completely prevented lesion development; concentration inducing hemolysis (cell shrinkage and phospholipid scrambling of the cell membrane) (erythrocytes): higher than 30 μM; CC50 [6, 14]: 123 µM; CC50 at 48 h ([4]; read-out: CC50 Peritoneal murine macrophages 48 h): 123 µM; IC50 [2]: 36.8 µM; effect on number of amastigotes (amastigotes): reduction in the number of amastigotes; toxicity in HFF cell in vitro (HFF cell): low-toxicity; IC50 ([7]; Leishmania infantum, Macrophage): 29.6 µM; reduction of parasite load in the liver and the spleen (L. (L.) donovani): > 96%; hepatotoxicity ([8]; LicoA-treated vs non-treated groups, serum aminotransaminases): No evidence of hepatotoxicity; serum levels of aminotransaminases (ALT, AST) ([8]; 20 mg/kg of body weight per day intraperitoneally): no significant alterations; serum levels of aminotransaminases (ALT, AST) [8, 15]: no significant alterations; reduction of parasite burden in liver (L. (L.) infantum; [16]): 15.27%; reduction of parasite burden in spleen (L. (L.) infantum; [16]): 20.69%; reduction of parasite burden in liver (L. (L.) infantum; [17]): 43.67%; reduction of parasite burden in spleen (L. (L.) infantum; [17]): 39.81%; survival rate (L. (L.) infantum): 100%; average body weight (L. (L.) infantum): no significant variation; IC50 ([9]; Leishmania infantum, 24 h, read-out: IC50 L (L.) infantum Promastigote 24 h): 41.1 µM; IC50 ([9]; Leishmania infantum, 48 h, read-out: IC50 L (L.) infantum Promastigote 48 h): 12.5 µM; effect against Acetaminophen overdose-induced hepatotoxicity [10]: protective effect; hemolytic activity [11]: about 30%

With “(E)-3-(4-hydroxy-3-methoxyphenyl)-1-(4-hydroxyphenyl)prop-2-en-1-one [LLA2 (2a)]” as the compound, how does the IC50 ([1]; 24 h, read-out: IC50 L (L.) amazonensis Promastigote 24 h) read?
Its IC50 is 301 µM.

And the IC50 ([1]; 48 h, read-out: IC50 L (L.) amazonensis Promastigote 48 h)?
The IC50 was 287 µM.

And the CC50 [6]?
The CC50 was greater than 400 µM.

With “meglumine antimoniate [MA, reference compound]” as the compound, how does the “cytotoxicity at concentrations evaluated” value ([6]; 12.5–400 μM, 48 h) read?
Its value is “no cytotoxicity”.

What about the CC50 [6, 14] of the same compound?
Its CC50 is greater than 400 µM.

And the IC50 ([7]; in peritoneal murine macrophages, value (95% CI))?
Its IC50 is greater than 400 µM.

What about the “serum levels of aminotransaminases (ALT, AST)” value [8, 15] of the same compound?
Its value is “significant increase”.

What about the “reduction of parasite burden in liver” value (L. (L.) infantum; [17]) of the same compound?
The value was 55.87%.

What about the “reduction of parasite burden in spleen” value (L. (L.) infantum; [17]) of the same compound?
The value was 63.57%.

And the survival rate (L. (L.) infantum)?
The survival rate was 100%.

What about the average body weight (L. (L.) infantum) of the same compound?
The average body weight was “no significant variation”.

What about the IC50 ([9]; 24 h, value (95% CI), read-out: IC50 L (L.) infantum Promastigote 24 h) of the same compound?
The IC50 was greater than 400 µM.

And the IC50 ([9]; 48 h, value (95% CI), read-out: IC50 L (L.) infantum Promastigote 48 h)?
Its IC50 is greater than 400 µM.
